Where two headings read alike, the source gives them in different places.
Legend:
[1] = tested on: human G2 acute lymphoblastic leukemia (ALL) cells; test: Flow cytometry cell-based assay: inhibition of soluble VCAM-1 binding to G2 ALL cells
Description: (§1) Compounds were tested for their ability to inhibit the binding of soluble VCAM-1 to human G2 acute lymphoblastic leukemia (ALL) cells. Briefly, G2 ALL cells are pre-incubated with increasing concentrations (0.001 to 1000 nM) of compounds for 30 minutes. Soluble VCAM/Fc chimera protein (R&D systems) is then added to the mixture and the cells incubated for an additional 30 minutes. Afterwards, cells are washed and VCAM-1 is detected using PE-conjugated secondary mAbs. In each experiment, an aliquot of cells will be stained with isotype control mAbs to serve as a negative control. The percentage of VCAM-1 binding cells was then determined by flow cytometry.
as §1, with “(ALL) cells or 5TGMI myeloma” for “(ALL)”, “ALL or 5TGMI” for “ALL”

[2] = tested on: LSK cells; test: Flow cytometric enumeration of mobilized LSK cells, DBA/2J mice; type: in vivo; settings: for LSK cell mobilization compared with firategrast: FIG. 17
Description: Peripheral blood (PB) was drawn from the facial vein without anaesthesia into K/EDTA anti-coagulated tubes (Sarstedt AG & Co, Nimbrecht, Germany). Cell counts (WBC) were determined using an automatic hemocytometer (Hemavet 950, Drew Scientific, Dallas, Tex.). Red blood cells were removed from 25 μL aliquots of blood using hypotonic lysis (Ammonium-Chloride-Potassium, ACK buffer, 5-10 min at RT). Samples were resuspended in staining buffer (PBS supplemented with 0.5% bovine serum albumin and 2 mM EDTA) and incubated for 30 min at 4° C. with pre-titrated saturating dilutions of the following fluorochrome-labeled monoclonal antibodies (BD Biosciences, San Jose, Calif.; clone designated in parenthesis): Sca1-PE (D7), CD117-BV421 (ACK2), lineage-APC (17A2, RB6-8C5, RA3-6B2, Ter-119, M/170) and CD45-A700 (30-F11). Dead cells were excluded from these assays by staining with 2 μg/mL 7-amino-actinomycin D (Molecular Probes, Eugene, Oreg.) for 5 min prior to analysis. Appropriate isotype-matched negative controls were used to assess background fluorescence intensity. Samples were analyzed on a Beckman Coulter Gallios flow cytometer and data were analyzed using FlowJo software (TreeStar, Ashland, Oreg.). Absolute numbers of immunophenotypically defined populations (e.g. LSK) were calculated by identifying CD45 positive cells as WBC from the corresponding cell count analysis. Statistical comparisons of flow cytometry data were performed using an unpaired two-tailed Student t-test (GraphPad Prism). P-values ≤0.05 were considered significant.

[3] = tested on: 5TGMI myeloma cells; test: Flow cytometry cell-based assay: inhibition of soluble VCAM-1 binding to 5TGMI myeloma cells; settings: FIG. 12
Description: as §1, with “(ALL) cells or 5TGMI myeloma” for “(ALL)”, “ALL or 5TGMI” for “ALL”

[4] = tested on: murine HSPCs; test: Colony forming cell (CFC/CFU) assay of mobilized peripheral blood, DBA/2 mice; type: in vivo; settings: for amount of CFU-C cells mobilized in combination with Groβt versus inhibitor alone: DBA/2J mice, FIG. 16
Description: The VLA-4 inhibitors Examples 1220, 1221, 1224, 1610, and 1611 were prepared in DMSO/10 mM sodium bicarbonate pH 8/saline (1%/49.5%/49.5%) and injected subcutaneously (SC) at a dose of 3 mg/kg.
(§2) Peripheral blood (PB) was drawn from the facial vein without anaesthesia into K/EDTA anti-coagulated tubes (Sarstedt AG & Co, Numbrecht, Germany). Red blood cells were removed from 25 L aliquots of blood using hypotonic lysis (Ammonium-Chloride-Potassium, ACK buffer, 5-10 min at RT) and samples were mixed with 2.5 mL methylcellulose media supplemented with a cocktail of recombinant cytokines (MethoCult 3434; Stem Cell Technologies, Vancouver, BC, Canada). Cultures were plated in duplicate in 35 mm dishes and placed in a humidified chamber with 5% CO2 at 37° C. After 7 d of culture, colonies containing at least 50 cells were counted using an inverted microscope in a blinded fashion.
Recombinant human CXCL2 (Groβt; R&D systems) was reconstituted in sterile Ca^+2/Mg^+2-free phosphate buffered saline (PBS) and injected subcutaneously (SC) at a dose of 2.5 mg/kg. Firategrast (U.S. Patent Application No. 2014/051655) was dissolved in Ca^+2/Mg^+2-free PBS plus 1% ethanol and injected intravenously at a dose of 100 mg/kg. RhG-CSF (Neupogen®, Filgrastim, Amgen, Thousand Oaks, Calif., USA) diluted in PBS was injected i.p. every 12 hrs at a dose of 100 μg/kg for a total of 9 (day 5) doses.
as §2, with “Co, Nimbrecht,” for “Co, Numbrecht,”, “25 μL” for “25 L”
Recombinant human CXCL2 (Groβt; R&D systems) was reconstituted in sterile Ca^+2/Mg^+2-free phosphate buffered saline (PBS) and injected subcutaneously (SC) at a dose of 2.5 mg/kg. Firategrast (published structure: C27H27F2NO6; U.S. Patent Application No. 2014/051655) was dissolved in Ca^+2/Mg^+2-free PBS plus 1% ethanol and injected intravenously at a dose of 100 mg/kg. RhG-CSF (Neupogen®, Filgrastim, Amgen, Thousand Oaks, Calif., USA) diluted in PBS was injected i.p. every 12 hrs at a dose of 100 μg/kg for a total of 9 (day 5) doses.

[5] = Table 8; inhibition of sVCAM-1 binding to human G2 ALL cells; read-out: sVCAM-1 IC50
[6] = flow cytometry, FIG. 5, 8, 9, 12
[7] = Table 12; inhibition of sVCAM-1 binding to human G2 ALL cells; read-out: sVCAM-1 IC50
[8] = Table 10; inhibition of sVCAM-1 binding to human G2 ALL cells; read-out: sVCAM-1 IC50

Question: For `CCOCc1cc(OC)c(-c2ccc(C[C@H](NC(=O)[C@@H]3CCCN3S(=O)(=O)c3ccccc3)C(=O)O)cc2)c(OC)c1` [Compound 1610, (S)-3-(4′-(ethoxymethyl)-2′,6′-dimethoxy-[1,1′-biphenyl]-4-yl)-2-((S)-1-(phenylsulfonyl)pyrrolidine-2-carboxamido)propanoic acid], which IC50 [1, 5] is on record?
Answer: The IC50 was 0.83 nM.

Question: What about the “inhibition of sVCAM-1 binding compared with Firategrast” value [1, 6] of the same compound?
Answer: The value was “significantly more potent than Firategrast”.

Question: And the “LSK cell mobilization compared with firategrast” value [2]?
Answer: The value was “greater extent than firategrast”.

Question: And the “inhibition of VCAM binding in 5TGMI cells compared with Firategrast / BIO5192” value [3]?
Answer: The value was “even more potent than BIO5192”.

Question: With `CCOCc1cc(OC)c(-c2ccc(C[C@H](NC(=O)c3c(Cl)cccc3Cl)C(=O)O)cc2C(C)O)c(OC)c1` (stereo partly drawn) [Cmpd 12, (2S)-2-(2,6-dichlorobenzamido)-3-(4′-(ethoxymethyl)-2-(1-hydroxyethyl)-2′,6′-dimethoxy-[1,1′-biphenyl]-4-yl)propanoic acid] as the compound, how does the “amount of CFU-C cells mobilized in combination with Groβt versus inhibitor alone” value (shortened to “amount … with Groβt versus inhibitor alone”) [4] read?
Answer: The value was “nearly doubled”.

Question: What about the IC50 [1, 7] of the same compound?
Answer: The IC50 was 3.33 nM.

Question: With `CCOCc1cc(OC)c(-c2ccc(C[C@H](NC(=O)c3c(Cl)cccc3Cl)C(=O)O)cc2C(C)O)c(OC)c1` (stereo partly drawn) [Compound 1633, (2S)-2-(2,6-dichlorobenzamido)-3-(4′-(ethoxymethyl)-2-(1-hydroxyethyl)-2′,6′-dimethoxy-[1,1′-biphenyl]-4-yl)propanoic acid] as the compound, how does the IC50 [1, 5] read?
Answer: The IC50 was 3.33 nM.

Question: And the “inhibition of sVCAM-1 binding compared with Firategrast” value [1, 6]?
Answer: Its value is “significantly more potent than Firategrast”.

Question: And the “LSK cell mobilization compared with firategrast” value [2]?
Answer: Its value is “greater extent than firategrast”.

Question: Which “amount … with Groβt versus inhibitor alone” value [4] does the source give for `CCOCc1cc(OC)c(-c2ccc(C[C@H](NC(=O)[C@@H]3CCCN3S(=O)(=O)c3cc(Cl)cc(Cl)c3)C(=O)O)cc2)c(OC)c1` [Cmpd 36, (S)-2-((S)-1-((3,5-dichlorophenyl)sulfonyl)pyrrolidine-2-carboxamido)-3-(4′-(ethoxymethyl)-2′,6′-dimethoxy-[1,1′-biphenyl]-4-yl)propanoic acid] here?
Answer: Its value is “nearly doubled”.

Question: And the IC50 ([1]; read-out: sVCAM-1 IC50; Table 12; inhibition of sVCAM-1 binding to human G2 ALL cells)?
Answer: The IC50 was 0.49 nM.

Question: How did the “amount … with Groβt versus inhibitor alone” value [4] turn out when `CCOCc1cc(OC)c(-c2ccc(C[C@H](NC(=O)[C@@H]3CCCN3S(=O)(=O)c3ccccc3)C(=O)O)cc2)c(OC)c1` [Cmpd 35, (S)-3-(4′-(ethoxymethyl)-2′,6′-dimethoxy-[1,1′-biphenyl]-4-yl)-2-((S)-1-(phenylsulfonyl)pyrrolidine-2-carboxamido)propanoic acid] was run?
Answer: Its value is “nearly doubled”.

Question: What about the IC50 [1, 7] of the same compound?
Answer: The IC50 was 0.83 nM.

Question: Which “CFU-C mobilization, VLA4 blockade combined with CXCR2 stimulation” value ([4]; DBA2/J mice, FIG. 15/29) does the source give for `COc1cc(CC(=O)N[C@@H](CC(C)C)c2cc(CCC(=O)O)on2)ccc1NC(=O)Nc1ccccc1C` [Compound 842] here?
Answer: Its value is “mobilized”.

Question: And the IC50 [1, 8]?
Answer: The IC50 was 0.4 nM.

Question: And the “inhibition of sVCAM-1 binding compared with Firategrast” value [1, 6]?
Answer: Its value is “significantly more potent”.

Question: And the “LSK mobilization, VLA4 blockade combined with CXCR2 stimulation” value ([2]; DBA2/J mice, FIG. 15/29)?
Answer: The value was “mobilized”.

Question: With `CCCCCCOCc1cc(OC)c(-c2ccc(C[C@H](NC(=O)c3c(Cl)cc(C(=O)O)cc3Cl)C(=O)O)cc2)c(OC)c1` [Compound 1555, (S)-4-((1-carboxy-2-(4′-((hexyloxy)methyl)-2′,6′-dimethoxy-[1,1′-biphenyl]-4-yl)ethyl)carbamoyl)-3,5-dichlorobenzoic acid] as the compound, how does the IC50 [1, 5] read?
Answer: Its IC50 is 12.9 nM.

Question: And the “inhibition of sVCAM-1 binding compared with Firategrast” value [1, 6]?
Answer: Its value is “greater inhibition of sVCAM-1 binding than did Firategrast”.

Question: How did the IC50 [1, 5] turn out when `COCCOCCOCCOCc1cc(OC)c(-c2ccc(C[C@H](NC(=O)[C@@H]3CCN3S(=O)(=O)c3cc(Cl)cc(Cl)c3)C(=O)O)cc2)c(OC)c1` [Compound 2088, (S)-3-(4′-(2,5,8,11-tetraoxadodecyl)-2′,6′-dimethoxy-[1,1′-biphenyl]-4-yl)-2-((S)-1-((3,5-dichlorophenyl)sulfonyl)azetidine-2-carboxamido)propanoic acid] was run?
Answer: The IC50 was 0.7 nM.

Question: What about the “inhibition of sVCAM-1 binding compared with other inhibitors” value ([1]; flow cytometry, FIG. 6, 7, 10, 11) of the same compound?
Answer: The value was “inhibition was greatest”.

Question: What does the source list for `COCCOCCOCCOCc1cc(OC)c(-c2ccc(C[C@H](NC(=O)c3c(Cl)cc(C(=O)O)cc3Cl)C(=O)O)cc2)c(OC)c1` [Compound 1570, (S)-4-((2-(4′-(2,5,8,11-tetraoxadodecyl)-2′,6′-dimethoxy-[1,1′-biphenyl]-4-yl)-1-carboxyethyl)carbamoyl)-3,5-dichlorobenzoic acid]?
Answer: IC50 [1, 5]: 2.97 nM; inhibition of sVCAM-1 binding compared with Firategrast [1, 6]: greater inhibition of sVCAM-1 binding than did Firategrast

Question: How did the IC50 [1, 8] turn out when `COc1cccc(OC)c1-c1ccc(C[C@H](NC(=O)[C@]2(C)CCCN2S(=O)(=O)c2cc(Cl)cc(Cl)c2)C(=O)O)cc1` [Compound 824] was run?
Answer: Its IC50 is 0.6 nM.

Question: What about the “inhibition of sVCAM-1 binding compared with Firategrast” value [1, 6] of the same compound?
Answer: The value was “significantly more potent”.

Question: What about the “LSK cell mobilization compared with firategrast” value [2] of the same compound?
Answer: The value was “greater extent than firategrast”.

Question: Which IC50 [1, 5] does the source give for `COCCOCCOCCOCc1cc(OC)c(-c2ccc(C[C@H](NC(=O)[C@@H]3CCN3S(=O)(=O)c3ccccc3)C(=O)O)cc2)c(OC)c1` [Compound 2087, (S)-3-(4′-(2,5,8,11-tetraoxadodecyl)-2′,6′-dimethoxy-[1,1′-biphenyl]-4-yl)-2-((S)-1-(phenylsulfonyl)azetidine-2-carboxamido)propanoic acid] here?
Answer: The IC50 was 2.06 nM.

Question: Which results are given for `COCCOCc1cc(OC)c(-c2ccc(C[C@H](NC(=O)c3c(Cl)cc(C(=O)O)cc3Cl)C(=O)O)cc2)c(OC)c1` [Compound 1554, (S)-4-((1-carboxy-2-(2′,6′-dimethoxy-4′-((2-methoxyethoxy)methyl)-[1,1′-biphenyl]-4-yl)ethyl)carbamoyl)-3,5-dichlorobenzoic acid]?
Answer: IC50 [1, 5]: 1.47 nM; inhibition of sVCAM-1 binding compared with Firategrast [1, 6]: greater inhibition of sVCAM-1 binding than did Firategrast

— US20190328706A1, “COMPOSITIONS COMPRISING AN INTEGRIN INHIBITOR AND AGENTS WHICH INTERACT WITH A CHEMOKINE AND METHODS OF USE THEREOF” (Saint Louis University, priority 2016, published 2019)
